Results reported in ChEMBL document CHEMBL6153088, “Discovery of 1,4-Disubstituted Cyclohexene Analogues as Selective GPR119 Agonists for the Treatment of Type 2 Diabetes” (J Med Chem, 2025).

Legend:
[1] = molecular target: T1, Glucose-dependent insulinotropic receptor (Homo sapiens, UniProt Q8TDV5); test: Agonist activity at human GPR119 expressed in CHO cells assessed as cAMP level measured after 90 mins by HTRF based assay; assay type: functional, cell-based
T1 sequence (Q8TDV5 whole entry): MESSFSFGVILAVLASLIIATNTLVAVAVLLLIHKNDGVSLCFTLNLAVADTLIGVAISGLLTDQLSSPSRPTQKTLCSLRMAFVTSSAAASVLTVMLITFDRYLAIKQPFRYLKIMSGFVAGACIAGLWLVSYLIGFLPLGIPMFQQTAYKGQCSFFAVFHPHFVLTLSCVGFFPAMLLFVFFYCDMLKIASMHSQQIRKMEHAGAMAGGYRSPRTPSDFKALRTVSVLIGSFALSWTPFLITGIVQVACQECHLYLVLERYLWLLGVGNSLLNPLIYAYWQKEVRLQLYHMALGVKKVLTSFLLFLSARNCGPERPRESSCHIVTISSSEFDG

Mus musculus [2] = test: (§1) Anti-diabetic activity in overnight fasted male C57BL/6J mouse assessed as reduction in blood glucose level by measuring reduction in AUC […] at 20 mg/kg pre-administered with compound for 30 min followed by glucose bolus addition and measured upto 120 min by oral glucose tolerance test relative to control; assay type: functional; design: scale not given: the % may be the effect or the level left; details: time <= 150 min, 2.5 h
[3] = molecular target: T1, Glucose-dependent insulinotropic receptor; test: Agonist activity at human GPR119; assay type: functional
Mus musculus [4] = test: as §1, with “at 10” for “at 20”, “mg/kg once a day” for “mg/kg”; assay type: functional; design: scale not given: the % may be the effect or the level left; details: time <= 150 min, 2.5 h
Mus musculus [5] = test: Anti-diabetic activity in male FATZO mouse assessed as reduction in blood glucose level by measuring reduction in AUC […] at 30 mg/kg pre-administered with compound for 30 min followed by glucose bolus addition and measured upto 120 min by oral glucose tolerance test relative to control; assay type: functional; design: scale not given: the % may be the effect or the level left; details: time <= 150 min, 2.5 h
Mus musculus [6] = test: as §1, with “at 30” for “at 20”; assay type: functional; design: scale not given: the % may be the effect or the level left; details: time <= 150 min, 2.5 h
[7] = molecular target: T1, Glucose-dependent insulinotropic receptor; test: Agonist activity at human GPR119 expressed in CHO-K1 cells co-transfected with pcDNA3.1 assessed as increase in cAMP level; assay type: functional, cell-based

Compound | EC50 [1] | Activity (Mus musculus [2]) | further results
CCc1cnc(N2CCC(COc3ccc(C4=CCC(C(=O)N5CC[C@@H](CO)C5)CC4)cc3)CC2)nc1 (stereo partly specified) | 43 nM | 7.6% | 
CCc1cnc(N2CCC(COc3ccc(C4=CCC(C(=O)N5CC[C@H](CO)C5)CC4)cc3)CC2)nc1 (stereo partly specified) | 36 nM | 13% | 
CCc1cnc(N2CCC(CCCOc3cc(F)c(-c4noc(C(C)C)n4)c(F)c3)CC2)nc1 |  |  | EC50 [3]: 14 nM
N[C@@H](CC(=O)N1CCn2c(nnc2C(F)(F)F)C1)Cc1cc(F)c(F)cc1F [SITAGLIPTIN] |  |  | Activity (Mus musculus [4]): 20.5%; Activity (Mus musculus [5]): 17.5%; Activity (Mus musculus [6]): 22%
CC(C)c1noc(N2CCC(COc3ccc(C4=CCC(C(=O)N5CCC5)CC4)cc3)CC2)n1 (stereo unspecified) | 41 nM | 4.2% | 
CCc1cnc(N2CCC(COc3ccc(C4=CCC(C(=O)N5CCC(=O)C5)CC4)cc3)CC2)nc1 (stereo unspecified) | 12 nM | 12.7% | 
CC(C)c1noc(N2CCC(COc3ccc(C4=CCC(C(=O)N5CCCC5)CC4)cc3)CC2)n1 (stereo unspecified) | 55 nM | 5.9% | 
CCOC(=O)c1ccc(-c2ccc(OCC3CCN(C(=O)OC(C)(C)C)CC3)cc2)cc1 |  |  | EC50 [3]: 120 nM
CCOC(=O)C1CCC(c2ccc(OCC3CCN(C(=O)OC(C)(C)C)CC3)cc2)CC1 (stereo unspecified) |  |  | EC50 [3]: 370 nM
CC[C@@H](Oc1ccc(C(=O)C2CC2)cc1)c1nc(-c2ccc(C(=O)N[C@H](C)CO)c(F)c2)no1 [FIRUGLIPEL] |  |  | EC50 [7]: 51 nM

Now from value to molecule, other results behind:

EC50 [1] | Compound | Activity (Mus musculus [2]) | further results
53 nM | CCOC(=O)C1CC=C(c2ccc(OCC3CCN(C(=O)OC(C)(C)C)CC3)cc2)CC1 (stereo unspecified) |  | 
34 nM | CC(C)(C)OC(=O)N1CCC(COc2ccc(C3=CCC(C(=O)NCC(F)F)CC3)cc2)CC1 (stereo unspecified) | 10.6% | 
14 nM | CN(CCO)C(=O)C1CC=C(c2ccc(OCC3CCN(C(=O)OC(C)(C)C)CC3)cc2)CC1 (stereo unspecified) | 6.8% | 
38 nM | CCc1cnc(N2CCC(COc3ccc(C4=CCC(C(=O)N5CCC5)CC4)cc3)CC2)nc1 (stereo unspecified) | 14.6% | 
13 nM | CC(C)(C)OC(=O)N1CCC(COc2ccc(C3=CCC(C(=O)N4CCOCC4)CC3)cc2)CC1 (stereo unspecified) | 10.2% | 
